Where two headings read alike, the source gives them in different places.
Columns and labels:
[1] = tested on: Russian thistle (SASKR, Salsola kali); assay: Greenhouse postemergence herbicidal effect; format: in vivo
Experimental: (§1) The plants were grown for 7-36 days (d) in a greenhouse with an approximate 14-hour (h) photo-period which was maintained at about 23° C. during the day and 22° C. during the night. Nutrients and water were added on a regular basis and supplemental lighting was provided with overhead metal halide 1000-Watt lamps as necessary. The plants were employed for testing when they reached the second or third true leaf stage.
(§2) The emulsifiable concentrates also included a safener, cloquintocet-mexyl, at 120 grams active ingredient per liter (g ai/L), unless otherwise noted below.
(§3) Control plants were sprayed in the same manner with the solvent blank. All pyridine carboxylate herbicide (component a) application rates are given as “g ae/ha” and all ALS inhibitor (component b) application rates are given as “g ai/ha.”
(§4) The treated plants and control plants were placed in a greenhouse as described above and watered by sub-irrigation to prevent wash-off of the test compounds. After 20-22 d, the condition of the test plants as compared with that of the control plants was determined visually and scored on a scale of 0 to 100 percent where 0 corresponds to no injury and 100 corresponds to complete kill.

[2] = tested on: pigweed (AMARE, Amaranthus retroflexus); assay: Greenhouse postemergence herbicidal effect; format: in vivo
Experimental: as §1, §2, §3, §4

[3] = tested on: spring rape (BRSNN, Brassica napus); assay: Greenhouse postemergence herbicidal effect; format: in vivo
Experimental: as §1, §2, §3, §4

[4] = tested on: wild buckwheat (POLCO, Polygonum convolvulus); assay: Greenhouse postemergence herbicidal effect; format: in vivo
Experimental: as §1, §2, §3, §4

[5] = tested on: wild chamomile (MATCH, Matricaria chamomilla); assay: Greenhouse postemergence herbicidal effect; format: in vivo
Experimental: as §1, §2, §3, §4

[6] = tested on: wild mustard (SINAR, Sinapis arvensis); assay: Greenhouse postemergence herbicidal effect; format: in vivo
Experimental: as §1, §2, §3, §4

[7] = tested on: common lambsquarters (CHEAL, Chenopodium album L.); assay: Greenhouse postemergence herbicidal effect; format: in vivo
Experimental: (§5) Seeds of the desired test plant species were planted in a 90:10% v/v (volume/volume) mixture of PRO-MIX® BX (Premier Tech Horticulture, Quakertown, PA, USA) and PROFILE® GREENS GRADE™ (Profile Products LLC, Buffalo Grove, IL, USA) planting mixture, which typically has a pH of 5.2 to 6.2 and an organic matter content of at least 50 percent, in plastic pots with a surface area of 103.2 square centimeters (cm^2). […] The plants were grown for 7-36 days (d) in a greenhouse with an approximate 14-hour (h) photo-period which was maintained at about 23° C. during the day and 22° C. during the night. Nutrients and water were added on a regular basis and supplemental lighting was provided with overhead metal halide 1000-Watt lamps as necessary. The plants were employed for testing when they reached the second or third true leaf stage.
(§6) Emulsifiable concentrates of each of each pyridine carboxylate herbicide (Compound A or Compound B) were prepared at 100 grams acid equivalent per liter (g ae/L). The emulsifiable concentrates also included a safener, cloquintocet-mexyl, at 120 grams active ingredient per liter (g ai/L), unless otherwise noted below. An aliquot of each emulsifiable concentrate was placed in a 25 mL glass vial and diluted with an aqueous mixture of 1.25% (v/v) ACTIROB® B esterified rapeseed oil (Bayer Crop Science, Research Triangle Park, NC, USA) or MSO® Concentrate with LECI-TECH® methylated soybean oil (Loveland Products, Loveland, CO, USA) to obtain concentrated stock solutions at the highest application rate for each herbicide, based upon a 12 milliliter (mL) application volume at a rate of 187 liters per hectare (L/ha). The concentrated stock solutions were further diluted with an aqueous mixture of 1.25% v/v ACTIROB® B or MSO® Concentrate with LECI-TECH® to obtain stock solutions at reduced application rates for each herbicide. Spray solutions of the herbicide combinations (Compound A or Compound B plus ALS herbicide) were prepared by adding weighed amounts or aliquots of the ALS herbicides to the stock solutions of Compound A or Compound B to form 12-mL spray solutions in two- or three-way combinations.
(§7) The spray solutions were applied to the plant material with an overhead Mandel track sprayer equipped with 8002E nozzles calibrated to deliver 187 L/ha over an application area of 0.503 square meters (m^2) at a spray height of 18 inches (43 centimeters (cm)) above the average plant canopy. Control plants were sprayed in the same manner with the solvent blank. All pyridine carboxylate herbicide (component a) application rates are given as “g ae/ha” and all ALS inhibitor (component b) application rates are given as “g ai/ha.”
as §4

[8] = tested on: kochia (KCHSC, Kochia scoparia); assay: Greenhouse postemergence herbicidal effect; format: in vivo
Experimental: as §5, §6, §7, §4

[9] = tested on: Canadian thistle (CIRAR, Cirsium arvense); assay: Greenhouse postemergence herbicidal effect; format: in vivo
Experimental: as §1, §2, §3, §4

[10] = tested on: wild pansy (VIOTR, Viola tricolor); assay: Greenhouse postemergence herbicidal effect; format: in vivo
Experimental: as §1, §2, §3, §4

[11] = tested on: winter rape (BRSNW, Brassica napus); assay: Greenhouse postemergence herbicidal effect; format: in vivo
Experimental: as §1, §2, §3, §4

[12] = tested on: spring wheat (TRZAS); format: in vivo, Triticum aestivum
Experimental: as §1, §2, §3, §4

[13] = tested on: spring barley (HORVS); format: in vivo, Hordeum vulgare
Experimental: as §1, §2, §3, §4

Compound: CCOc1nc(F)cc2nc(S(=O)(=O)Nc3c(Cl)cccc3Cl)nn12 [Diclosulam, diclosulam]
- % visual injury Obs ([1]; Diclosulam 17.5 g/ha): 25%
- % visual injury Obs ([2]; Diclosulam 17.5 g/ha): 85%
- % visual injury Obs ([3]; Diclosulam 17.5 g/ha): 100%
- % visual injury Obs ([4]; Diclosulam 17.5 g/ha): 98%
- % visual injury Obs ([5]; Diclosulam 17.5 g/ha): 68%
- % visual injury Obs ([6]; Diclosulam 17.5 g/ha): 100%
- % visual injury Obs ([7]; Diclosulam 17.5 g/ha): 0%
- % visual injury Obs ([8]; Diclosulam 17.5 g/ha): 0%

Compound: CC(C)C1(C)N=C(c2ncccc2C(=O)O)NC1=O (stereo not drawn) [Imazapyr, imazapyr]
- pest or weed control at 140 g/ha ([9]; Cirsium arvense, post-emergence, 140 g/ha, read-out: % visual injury, Obs): 80%
- % visual injury, Obs ([10]; 140 g/ha): 63%
- pest or weed control at 140 g/ha ([8]; Bassia scoparia, post-emergence, 140 g/ha, read-out: % visual injury, Obs): 54%

Compound: COc1cc(OC)nc(NC(=O)NS(=O)(=O)N(C)S(C)(=O)=O)n1 [Amidosulfuron, amidosulfuron]
- % visual injury ([9]; Amidosulfuron 45 g/ha): 18%
- pest or weed control at 22.5 g/ha ([9]; Cirsium arvense, post-emergence, 22.5 g/ha, read-out: % visual injury, Obs): 15%
- % visual injury ([2]; Amidosulfuron 45 g/ha): 100%
- % visual injury, Obs ([3]; 22.5 g/ha): 98%
- % visual injury ([4]; Amidosulfuron 45 g/ha): 55%
- % visual injury ([5]; Amidosulfuron 45 g/ha): 50%
- % visual injury ([6]; Amidosulfuron 45 g/ha): 82%
- % visual injury, Obs ([10]; 22.5 g/ha): 18%
- % visual injury ([11]; Amidosulfuron 45 g/ha): 98%
- % visual injury ([7]; Amidosulfuron 45 g/ha): 25%
- % visual injury ([8]; Amidosulfuron 45 g/ha): 5%
- pest or weed control at 22.5 g/ha ([8]; Bassia scoparia, post-emergence, 22.5 g/ha, read-out: % visual injury, Obs): 15%

Compound: COc1cc(OC)nc(Sc2cccc3c2C(=O)OC3C)n1 (stereo not drawn) [Pyriftalid, pyriftalid]
- % visual injury, Obs ([1]; 30 g/ha): 0%
- % visual injury, Obs ([3]; 30 g/ha): 18%
- % visual injury, Obs ([5]; 30 g/ha): 0%
- % visual injury, Obs ([6]; 30 g/ha): 23%
- pest or weed control at 30 g/ha ([8]; Bassia scoparia, post-emergence, 30 g/ha, read-out: % visual injury, Obs): 0%
- % visual injury, Obs ([12]; 30 g/ha): 0%
- % visual injury, Obs ([13]; 30 g/ha): 5%

Compound: COc1nn(C(=O)NS(=O)(=O)c2c(C(=O)O)csc2C)c(=O)n1C [Thiencarbazone, thiencarbazone]
- % visual injury ([9]; Thiencarbazone 5 g/ha): 10%
- % visual injury Obs ([9]; Thiencarbazone 10 g/ha): 45%
- % visual injury ([1]; Thiencarbazone 5 g/ha): 53%
- % visual injury ([2]; Thiencarbazone 5 g/ha): 83%
- % visual injury Obs ([2]; Thiencarbazone 10 g/ha): 98%
- % visual injury ([4]; Thiencarbazone 5 g/ha): 89%
- % visual injury Obs ([4]; Thiencarbazone 10 g/ha): 95%
- % visual injury ([5]; Thiencarbazone 5 g/ha): 55%
- % visual injury Obs ([5]; Thiencarbazone 10 g/ha): 80%
- % visual injury ([6]; Thiencarbazone 5 g/ha): 95%
- % visual injury Obs ([6]; Thiencarbazone 10 g/ha): 90%
- % visual injury ([11]; Thiencarbazone 5 g/ha): 97%
- % visual injury Obs ([11]; Thiencarbazone 10 g/ha): 98%
- % visual injury ([7]; Thiencarbazone 5 g/ha): 60%
- % visual injury Obs ([7]; Thiencarbazone 10 g/ha): 83%
- % visual injury ([8]; Thiencarbazone 5 g/ha): 25%
- % visual injury Obs ([8]; Thiencarbazone 10 g/ha): 45%
- % visual injury ([12]; in vivo): 0%
- % visual injury Obs ([12]; in vivo): 0%
- % visual injury ([13]; in vivo): 0%
- % visual injury Obs ([13]; in vivo): 8%

Compound: COCc1cnc(C2=NC(C)(C(C)C)C(=O)N2)c(C(=O)O)c1 (stereo not drawn) [Imazamox, imazamox]
- pest or weed control at 17.5 g/ha ([9]; Cirsium arvense, post-emergence, 17.5 g/ha, read-out: % visual injury, Obs): 63%
- % visual injury, Obs ([10]; 17.5 g/ha): 75%

Compound: CON=C(C)c1cccc(Oc2nc(OC)cc(OC)n2)c1C(=O)O (mixture of isomers) [Pyriminobac, pyriminobac]
- pest or weed control at 17.5 g/ha ([9]; Cirsium arvense, post-emergence, read-out: % visual injury, Obs): 0%
- % visual injury, Obs ([1]; 17.5 g/ha): 0%
- % visual injury, Obs ([3]; 17.5 g/ha): 0%
- % visual injury, Obs ([5]; 17.5 g/ha): 5%
- % visual injury, Obs ([6]; 17.5 g/ha): 5%
- % visual injury, Obs ([7]; 17.5 g/ha): 5%
- pest or weed control at 17.5 g/ha ([8]; Bassia scoparia, post-emergence, read-out: % visual injury, Obs): 0%
- % visual injury, Obs ([12]; 17.5 g/ha): 0%
- % visual injury, Obs ([13]; 17.5 g/ha): 0%

Compound: CCOc1nc(F)cc2nc(S(=O)(=O)Nc3c(Cl)cccc3C(=O)O)nn12 [Cloransulam, cloransulam]
- % visual injury Obs ([1]; Cloransulam 17.5 g/ha): 25%
- % visual injury Obs ([2]; Cloransulam 17.5 g/ha): 15%
- % visual injury Obs ([3]; Cloransulam 17.5 g/ha): 100%
- % visual injury Obs ([4]; Cloransulam 17.5 g/ha): 80%
- % visual injury Obs ([5]; Cloransulam 17.5 g/ha): 40%
- % visual injury Obs ([6]; Cloransulam 17.5 g/ha): 97%
- % visual injury Obs ([7]; Cloransulam 17.5 g/ha): 0%
- % visual injury Obs ([8]; Cloransulam 17.5 g/ha): 0%
- % visual injury Obs ([12]; Cloransulam 17.5 g/ha): 0%
- % visual injury Obs ([13]; Cloransulam 17.5 g/ha): 15%
